Experimental data published in patent publication US20240139144A1, “COPPER CHELATOR, ANTICANCER AGENT AND PROPHYLACTIC OR THERAPEUTIC AGENT FOR WILSON'S DISEASE” (Murata Manufacturing Co., Ltd., priority 2021, published 2024).

Assays:
[1] = Evaluation of copper chelating action by LC-MS after addition of CuCl2; type: binding; conditions: for copper chelating action: 10 mM compound in methanol, aqueous CuCl2 added to final 100 mM, shaken at 30° C. for 60 minutes, LC-MS; for peak of the ion of the compound (free compound) in the sample in which a copper ion was added / peak of the ion of the complex of the compound and a copper ion in the sample in which a copper ion was added: LC-MS positive mode, CuCl2 100 mM, 30° C., 60 minutes; for peak of the ion of the compound (free compound) in the sample in which a copper ion was added: m/z 379.00 for (1a), m/z 397.00 for (2a); for peak of the ion of the complex of the compound and a copper ion in the sample in which a copper ion was added: m/z 441.00 for (1a), m/z 459.00 for (2a)
Experimental: (Method for Evaluating Copper Chelating Action)
An aqueous CuCl2 solution was added to a methanol solution of 10 mM compound (1a) or 10 mM compound (2a) so as to have a final concentration of 100 mM, and the mixture was shaken at 30° C. for 60 minutes, and then analyzed by LC-MS. A methanol solution of 10 mM compound (la) or 10 mM compound (2a) to which an aqueous CuCl2 solution was not added was also analyzed by LC-MS.
(LC-MS measurement conditions)
Pure water to which 0.1% formic acid was added was used as a solvent A, and acetonitrile was used as a solvent B. The samples were separated on a reversed-phase column (Cosmosil 5.0C 18-MS-II 2.0×100 mm (manufactured by Nacalai Tesque, Inc.)). At this time, the flow rate was set to 0.2 ml/min, and elution was performed in a gradient mode in which the proportion of the solvent B was set to 2% until 2 minutes, and then changed from 2 to 98% from 2 to 15 minutes. The eluted sample was ionized by electrospray ionization method in a positive mode.

gram-positive bacteria = conditions: against gram-positive bacteria; cited from earlier work
Candida albicans = conditions: against Candida albicans; cited from earlier work

Row | Compound | copper chelating action [1] | peak of the ion of the compound (free compound) in the sample in which a copper ion was added [1] | peak of the ion of the complex of the compound and a copper ion in the sample in which a copper ion was added [1] | antimicrobial activity (gram-positive bacteria) | antimicrobial activity (Candida albicans) | copper chelating action compared between compounds ([1]; comparison between FIGS. 1 and 2 and FIGS. 4 and 5)
1 | [C-]#[N+][C@@H](Cc1ccc(O)c(-c2cc(C[C@H](NC=O)C(N)=O)ccc2O)c1)C(N)=O [compound (2a)] | has a copper chelating action | small | observed | – | – | –
2 | hazimycin A | – | – | – | antimicrobial activity | antimicrobial activity | –
3 | [C-]#[N+][C@@H](Cc1ccc(O)c(-c2cc(C[C@H]([N+]#[C-])C(N)=O)ccc2O)c1)C(N)=O [compound (1a)] | has a copper chelating action | not observed | observed | – | – | stronger than that of the compound (2a)
